From PubChem BioAssay (NCI)
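The compound was tested at five concentrations on cells cultured in 96-well plates, with a 48-hour exposure period. TGI denotes the concentration required for complete inhibition of growth.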

How the values were obtained:
Assay in all cases: NCI anticancer screen, dose series, 48 h
[1] = test system: LOX IMVI melanoma
[2] = test system: SR leukemia
[3] = test system: NCI-H226 lung
[4] = test system: SK-OV-3 ovarian
[5] = test system: NCI-H23 lung
[6] = test system: SW-620 colon
[7] = test system: SF-539 CNS
[8] = test system: HCT-15 colon
[9] = test system: SNB-19 CNS
[10] = test system: NCI-H522 lung
[11] = test system: MALME-3M melanoma
[12] = test system: A498 renal
[13] = test system: DU-145 prostate
[14] = test system: ACHN renal
[15] = test system: OVCAR-3 ovarian
[16] = test system: MDA-N
[17] = test system: HOP-92 NSCLC
[18] = test system: SK-MEL-5 melanoma
[19] = test system: SN12C renal
[20] = test system: CCRF-CEM leukemia
[21] = test system: COLO 205 colon
[22] = test system: SF-295 CNS
[23] = test system: SK-MEL-2 melanoma
[24] = test system: HOP-62 NSCLC
[25] = test system: HT29 colon
[26] = test system: T-47D breast
[27] = test system: NCI/ADR-RES ovarian
[28] = test system: OVCAR-8 ovarian
[29] = test system: OVCAR-5 ovarian
[30] = test system: PC-3 prostate
[31] = test system: IGROV1 ovarian
[32] = test system: K-562 leukemia
[33] = test system: MOLT-4 leukemia
[34] = test system: EKVX NSCLC
[35] = test system: BT-549 breast
[36] = test system: CAKI-1 renal
[37] = test system: MDA-MB-435
[38] = test system: TK-10 renal
[39] = test system: 786-0 renal
[40] = test system: SK-MEL-28 melanoma
[41] = test system: NCI-H460 lung
[42] = test system: OVCAR-4 ovarian
[43] = test system: RPMI-8226 leukemia
[44] = test system: M14 melanoma
[45] = test system: HCC-2998 colon
[46] = test system: UO-31 renal
[47] = test system: A549 NSCLC
[48] = test system: UACC-257 melanoma
[49] = test system: HS 578T breast
[50] = test system: UACC-62 melanoma
[51] = test system: U251 CNS
[52] = test system: MDA-MB-231 breast
[53] = test system: MCF7 breast
[54] = test system: RXF 393 renal
[55] = test system: SF-268 CNS
[56] = test system: HCT-116 colon
[57] = test system: SNB-75 CNS
[58] = test system: KM12 colon

Measured: TGI

COc1cc2c(cc1O)NC(=S)[C@@H]1CCCN1C2=O
> 100 µM: all assays above

O=c1[nH]c(=O)n(C2CC(O)C(CO)O2)c2nc3cc4ccccc4cc3nc12 (stereo not given)
not listed: [25]
> 100 µM: all other assays above

CN(Cc1cnc2c(n1)C(N)=NN(N)N2)c1ccc(C(=O)NC(CCP(=O)(O)O)C(=O)O)cc1 (stereo not given)
> 55.8 µM: [27]
> 89.6 µM: [35]
> 54 µM: [3]
71.8 µM: [54]
> 58.3 µM: [28]
> 38.8 µM: [25]
not listed: [29] | [39] | [56]
> 100 µM: all other assays above
